Assay results as given in US9943506B2, “BCL6 inhibitors as anticancer agents” (Cornell University, priority 2013, dated 2018).
Like-named read-outs stand apart in the source and are kept apart here.

How the values were obtained:
Ly7 DLBCL cells = test: Growth inhibition of DLBCL cells, Ly7; format: cell-based
Procedure: (§1) 50,000 cells per well were treated for 48 hours with different concentrations of the compounds in 96 well plates, using DMSO as a control. Then, viability was determined with Cell Titer Blue™ (Promega) and growth inhibition was calculated as the percentage of viable cells with respect to cells treated with DMSO alone. GI50 values were determined by dose-response curves.
(§2) 293T cells were grown in Dulbecco's modified Eagles medium supplemented with 10% fetal bovine serum (FBS) (Gemini Bio-Products, Woodland, Calif.) and 1% penicillin-streptomycin. DLBCL cell lines OCI-Ly1, OCI-Ly1-B50, OCI-Ly7, OCI-Ly10 and OCI-Ly19 were grown in 80% Iscove's medium, 20% FBS and penicillin G/streptomycin. DLBCL cell lines Toledo, Farage, SU-DHL4, DOHH-2, SC-1, RCK8, TMD8, HBL-1, Ly3, Karpas 422 and SU-DHL6 were cultured in 90% RPMI medium, 10% FBS, 2 mM glutamine, 10 mM Hepes and penicillin G/streptomycin. All cell lines were cultured at 37° C. in a humidified atmosphere of 5% CO2.

BCL6-BTB = BCL6-BTB (Homo sapiens, UniProt P41182); test: MicroScale Thermophoresis binding to BCL6-BTB
Procedure: BCL6 is also required for normal development of germinal center (GC) B-cells.
Recombinant BCL6-BTB was labeled using the RED-NHS Labeling kit (NanoTemper Technologies). […] The label:protein ratio was determined using photometry at 650 nm and Bradford reagent. […] The labeled BCL6-BTB was adjusted to 400 nM with PBS (Thermo) buffer supplemented with 0.05% Tween-80 (Fisher scientific). […] After 10 min incubation, approximately 4 μL of each solution was filled into Monolith NT Standard Treated Capillaries (NanoTemper Technologies GmbH). Thermophoresis was measured using a Monolith NT.115 instrument (NanoTemper Technologies GmbH) at an ambient temperature of 25° C. with 5 s/30 s/5 s laser off/on/off times, respectively. Instrument parameters were adjusted with 90% LED power and 40% MST power. Data of three independent experiments were analyzed (NT.Analysis software version 1.5.41, NanoTemper Technologies) using the signal from Thermophoresis.

SUDHL6 DLBCL cells = test: Growth inhibition of DLBCL cells, SUDHL6; format: cell-based; details: Homo sapiens, SU-DHL-6
Procedure: as §1, §2

Toledo DLBCL cells = test: Growth inhibition of DLBCL cells, Toledo; format: cell-based; details: Homo sapiens
Procedure: as §1, §2

Karpas 422 DLBCL cells = test: Growth inhibition of DLBCL cells, Karpas 422; format: cell-based; details: Homo sapiens, Table 4, Bcl6 independent, read-out: GI 50 K422
Procedure: as §1, §2

Ly3 DLBCL cells = test: Growth inhibition of DLBCL cells, Ly3; format: cell-based; details: Table 4; Bcl6 dependent; read-out: GI 50 Ly3
Procedure: as §1, §2

Ly1 DLBCL cells = test: Growth inhibition of DLBCL cells, Ly1; format: cell-based; details: Table 4; Bcl6 dependent; read-out: GI 50 Ly1
Procedure: as §1, §2

WSU-DLCL2 DLBCL cells = test: Growth inhibition of DLBCL cells, WSU-DLCL2; format: cell-based; details: Homo sapiens, WSUDLCL2; Table 4; Bcl6 independent; read-out: GI 50 WSUDLCL2
Procedure: as §1

Ly1B50 DLBCL cells = test: Growth inhibition of DLBCL cells, Ly1B50; format: cell-based; details: Table 4; Bcl6 independent; read-out: GI 50 Ly1B50
Procedure: as §1, §2

[1] = Table 4, Bcl6 dependent, read-out: GI 50 Ly7
[2] = Table 4, Bcl6 dependent, read-out: GI 50 SUDHL6
[3] = Table 4, Bcl6 independent, read-out: GI 50 Toledo
[4] = Table 13, BCL6 dependent, read-out: GI50 SUDHL6

Row | Compound | Kd (BCL6-BTB; Table 10) [µM] | GI50 (SUDHL6 DLBCL cells; Table 10, BCL6 dependent, read-out: GI50 SUDHL6) [µM] | GI50 (Karpas 422 DLBCL cells) [µM] | GI50 (SUDHL6 DLBCL cells; [2]) [µM] | Kd (BCL6-BTB; Table 13) [µM] | GI50 (SUDHL6 DLBCL cells; [4]) [µM] | GI50 (Ly7 DLBCL cells; Table 10, BCL6 dependent) [µM] | GI50 (Toledo DLBCL cells; Table 10, BCL6 independent) [µM] | GI50 (Ly7 DLBCL cells; [1]) [µM] | GI50 (Ly3 DLBCL cells) [µM] | GI50 (Ly1 DLBCL cells) [µM] | GI50 (WSU-DLCL2 DLBCL cells) [µM] | GI50 (Toledo DLBCL cells; [3]) [µM] | GI50 (Ly1B50 DLBCL cells) [µM] | GI50 (Ly7 DLBCL cells; Table 13, BCL6 dependent) [µM] | GI50 (Toledo DLBCL cells; Table 13, BCL6 independent) [µM]
1 | Cc1cccc(COC(=O)CN2C(=O)/C(=C3\SC(=S)N(CCC(=O)O)C3=O)c3cc(Cl)ccc32)c1 [Compound 374] | – | – | > 125 | 48 ± 17 | – | – | – | – | > 125 | > 125 | > 125 | 99 ± 20 | > 125 | > 125 | – | –
2 | O=C(O)CCN1C(=O)/C(=C2/C(=O)N(CC(=O)OCc3cccc(C(F)(F)F)c3)c3ccc(Cl)cc32)SC1=S [Compound 380] | – | – | 69 ± 4 | 18 ± 7 | – | – | – | – | 94 ± 19 | 71 ± 18 | 106 ± 20 | 67 ± 12 | 93 ± 23 | 68 | – | –
3 | Clc1ccc2[nH]c(SCc3ccccc3)nc2c1 [Compound 1057] | – | – | – | – | 87 ± 12 | > 125 | – | – | – | – | – | – | – | – | > 125 | > 125
4 | O=[N+]([O-])c1ccc2[nH]c(SCc3ccccc3)nc2c1 [Compound 1061] | – | – | – | – | 180 ± 36 | 40 ± 10 | – | – | – | – | – | – | – | – | 60 | > 125
5 | CCOc1ccc2[nH]c(SCc3ccccc3)nc2c1 [Compound 1063] | – | – | – | – | 315 ± 24 | > 125 | – | – | – | – | – | – | – | – | > 125 | > 125

Now from value to compound, other results behind:

Row | Kd (BCL6-BTB; Table 10) [µM] | GI50 (SUDHL6 DLBCL cells; Table 10, BCL6 dependent, read-out: GI50 SUDHL6) [µM] | GI50 (Karpas 422 DLBCL cells) [µM] | GI50 (SUDHL6 DLBCL cells; [2]) [µM] | Kd (BCL6-BTB; Table 13) [µM] | GI50 (SUDHL6 DLBCL cells; [4]) [µM] | Compound | GI50 (Ly7 DLBCL cells; Table 10, BCL6 dependent) [µM] | GI50 (Toledo DLBCL cells; Table 10, BCL6 independent) [µM] | GI50 (Ly7 DLBCL cells; [1]) [µM] | GI50 (Ly3 DLBCL cells) [µM] | GI50 (Ly1 DLBCL cells) [µM] | GI50 (WSU-DLCL2 DLBCL cells) [µM] | GI50 (Toledo DLBCL cells; [3]) [µM] | GI50 (Ly1B50 DLBCL cells) [µM] | GI50 (Ly7 DLBCL cells; Table 13, BCL6 dependent) [µM] | GI50 (Toledo DLBCL cells; Table 13, BCL6 independent) [µM]
6 | 324 ± 34 | 15 ± 7 | – | – | – | – | O=C(CN1C(=O)C(=O)c2cc(Cl)ccc21)OCc1ccsc1 [Compound 367] | 22 ± 4 | 53 ± 10 | – | – | – | – | – | – | – | –
7 | – | – | > 125 | 29 ± 14 | – | – | O=C(O)CCN1C(=O)/C(=C2/C(=O)N(CC(=O)OCc3ccc(C(F)(F)F)cc3)c3ccc(Cl)cc32)SC1=S [Compound 375] | – | – | > 125 | > 125 | > 125 | > 125 | > 125 | > 125 | – | –
8 | – | – | > 125 | 104 | – | – | O=C(O)CCN1C(=O)/C(=C2/C(=O)N(CC(=O)OCc3ccc(F)cc3)c3ccc(Cl)cc32)SC1=S [Compound 377] | – | – | > 125 | > 125 | > 125 | > 125 | > 125 | > 125 | – | –
9 | – | – | > 125 | 53.4 | – | – | O=C(O)CCN1C(=O)/C(=C2/C(=O)N(CC(=O)OCc3cccc(F)c3)c3ccc(Cl)cc32)SC1=S [Compound 378] | – | – | > 125 | > 125 | > 125 | > 125 | > 125 | > 125 | – | –
10 | – | – | > 125 | 22 ± 8 | – | – | C[C@@H](OC(=O)CN1C(=O)/C(=C2\SC(=S)N(CCC(=O)O)C2=O)c2cc(Cl)ccc21)c1ccccc1 [Compound 381] | – | – | > 125 | > 125 | > 125 | > 125 | > 125 | > 125 | – | –
